PubChem BioAssay AID2060350 (Molecular Pharmacology Branch, DTP, NCI, 2025)

Tested on: PDC 521955-158-R6-J3 spheroids, viability
Test: Anticancer human tumor 521955-158-R6-J3-PDC patient-derived pancreatic carcinoma cell line growth inhibition [TAK]
Conditions: spheroids with HUVEC and MSC; for IC50: curve of first compound; for viability, T/C: stronger effect = lower value
Text: Combinatorial screen of targeted agents with TAK-243 and ipatasertib in multi-cell type tumor spheroids
A high-throughput screen of multi-cell type tumor spheroids was designed to identify active combinations of targeted small molecules and TAK-243 or ipatasertib. Complex spheroids include a stromal component modeled by human endothelial cells (HUVEC) and fibroblasts modeled by human mesenchymal stem cells (MSCs). The concentration ranges selected for each drug and investigational agent were based upon clinically achievable concentrations if the clinical Cmax of the agent was known.
Compounds. The drugs and investigational agents: TAK-243 (785004), ipatasertib (767898), everolimus (733504), selumetinib (741078), bortezomib (756655), trametinib (758246), ixazomib (758254), vemurafenib (761431), dabrafenib (764134), sapanisertib (764658), alpelisib (765974), and copanlisib (816437), were obtained from the National Cancer Institute (NCI) Developmental Therapeutics Program Chemical Repository. The FDA-approved anticancer drug set is available from the NCI Developmental Therapeutics Program. […] The stock solutions were prepared in dimethyl sulfoxide (DMSO, Sigma-Aldrich, St. Louis, MO, cat. D2650) at 800-fold the tested concentration and stored at -70 degrees C prior to their use. All drugs and investigational agents were tested over a range starting from a high concentration at or near the clinical Cmax and decreasing in half-log increments. If the clinical Cmax for an agent had not been determined, the highest concentration tested was 10 microM.
NCI60 Cell Culture. NCI60 cell lines were obtained from the NCI Developmental Therapeutics Program Tumor Repository. For each lot of cells, the Repository performed Applied Biosystems AmpFLSTR Identifiler testing with PCR amplification to confirm consistency with the published Identifier STR profile for each cell line. Cells were kept in continuous culture for no more than 20 passages. The optimal seeding densities for each of the cell lines at each time point assessed were determined prior to performing the concentration response studies. Briefly, the NCI60 human tumor lines were grown as monolayers in RPMI 1640 medium supplemented with 10% FBS and 2 mmol/L L-glutamine.
An additional 2 lines were from the NCI60 cell line panel including melanomas, MALME-3M and SK-MEL-2. Pooled donor human umbilical vein endothelial cells (HUVEC, Lonza, cat. CC-2519) and human mesenchymal stem cells (hMSC, Lonza, cat. PT-2501) were purchased from Lonza (Walkersville, MD).
PDMR cell lines were grown in complete medium (DC medium): Dulbecco's modified Eagle's medium (DMEM)/F12 supplemented with 5% fetal bovine serum (FBS), 2 mM L-glutamine, 100 U/mL penicillin and 100 µg/ml streptomycin, 0.4 µg/ml hydrocortisone, 10 ng/ml epidermal growth factor (EGF) recombinant human protein, 24 µg/mL adenine, and 0.1 mg/mL primocin. During culture from frozen stock vials, PDMR cells were cultured in the same medium containing 10 µM Y-27632 (see Table 3). The PDCs were cultured in complete DMEM/F12 media without 10 microM Y-27632 dihydrochloride for at least two passages prior to the screen. The pooled donor HUVEC and hMSC were cultured in endothelial cell growth medium 2 (PromoCell, Heidelberg, Germany, cat. C-22011) and mesenchymal stem cell growth medium 2 (PromoCell, cat. C-28009), respectively. For all experiments, HUVEC and hMSC were used at passages </=5.
For the pre-screen, cell seeding densities were determined from a titration spanning the range from 5,000 to 313 cells per well. The mct-spheroids including 60% malignant cells, 25% HUVEC and 15% MSC dispensed as a mixture into U-bottom Ultra-Low Attachment 384-well plates (Corning, NY)
High-throughput Drug Combination Screening.
Prior to their inoculation into 384-well plates, malignant cells, HUVEC, and hMSC were removed from T flasks using TrypLE express (Thermo Fisher Scientific, cat. 12605036) and harvested by centrifugation for 5 min at 233 x g. […]
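Note: spheroids exposed to drugs for 7 days before readout.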
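Throughout, for viability, T/C: 100% = DMSO vehicle control viability.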

CC(C)CC(NC(=O)C(Cc1ccccc1)NC(=O)c1cnccn1)B(O)O (stereo not given) + CC(C)NCC(C(=O)N1CCN(c2ncnc3c2C(C)CC3O)CC1)c1ccc(Cl)cc1
IC50 (second compound 0.3 µM): 5.96 nM | IC50 (second compound 0.949 µM): 5.82 nM | IC50 (second compound 3 µM): 5.71 nM | IC50 (second compound 9.49 µM): 6.02 nM | IC50 (second compound 30 µM): 5.65 nM | viability, T/C (second compound 0.3 µM, first compound 31.6 pM): 94.4% | viability, T/C (second compound 0.3 µM, first compound 0.0001 µM): 95.4% | viability, T/C (second compound 0.3 µM, first compound 0.000316 µM): 94.5% | viability, T/C (second compound 0.3 µM, first compound 0.001 µM): 96.1% | viability, T/C (second compound 0.3 µM, first compound 0.00316 µM): 111% | viability, T/C (second compound 0.3 µM, first compound 0.01 µM): 10.6% | viability, T/C (second compound 0.949 µM, first compound 31.6 pM): 94.3% | viability, T/C (second compound 0.949 µM, first compound 0.0001 µM): 84.2% | viability, T/C (second compound 0.949 µM, first compound 0.000316 µM): 93.5% | viability, T/C (second compound 0.949 µM, first compound 0.001 µM): 103% | viability, T/C (second compound 0.949 µM, first compound 0.00316 µM): 109% | viability, T/C (second compound 0.949 µM, first compound 0.01 µM): 8.36% | viability, T/C (second compound 3 µM, first compound 31.6 pM): 90.6% | viability, T/C (second compound 3 µM, first compound 0.0001 µM): 90.5% | viability, T/C (second compound 3 µM, first compound 0.000316 µM): 93% | viability, T/C (second compound 3 µM, first compound 0.001 µM): 93.7% | viability, T/C (second compound 3 µM, first compound 0.00316 µM): 113% | viability, T/C (second compound 3 µM, first compound 0.01 µM): 6.03% | viability, T/C (second compound 9.49 µM, first compound 31.6 pM): 94.3% | viability, T/C (second compound 9.49 µM, first compound 0.0001 µM): 89% | viability, T/C (second compound 9.49 µM, first compound 0.000316 µM): 97.6% | viability, T/C (second compound 9.49 µM, first compound 0.001 µM): 96.1% | viability, T/C (second compound 9.49 µM, first compound 0.00316 µM): 104% | viability, T/C (second compound 9.49 µM, first compound 0.01 µM): 13.5% | viability, T/C (second compound 30 µM, first compound 31.6 pM): 93.8% | viability, T/C (second compound 30 µM, first compound 0.0001 µM): 92.1% | viability, T/C (second compound 30 µM, first compound 0.000316 µM): 89.9% | viability, T/C (second compound 30 µM, first compound 0.001 µM): 98.5% | viability, T/C (second compound 30 µM, first compound 0.00316 µM): 98.4% | viability, T/C (second compound 30 µM, first compound 0.01 µM): 6.17%
